Experimental data published in US20220136016A1, “MODIFIED CHLORAMPHENICOL […] AND BIOSYNTHESIS METHOD OF MAKING ESTERS USING SAME” (UNIVERSITY OF TENNESSEE RESEARCH FOUNDATION, priority 2020, published 2022).

B1: CAT_GEO: wild type CAT, type A, Geomicrobium sp. (protein, listed as Geomicrobium sp.)
chain: MTFNPITLENWERKEYFNHYLNQQTTFSMTTDIEISSFKAAIKRKGYKFYPTFIYMVTEVINANESFRISFNEEGKLGYWEKLIPLYTVFDDQKQSFSNLWTDSTGNVLTFQEDYDRDVAEYNHIGGLFPKTPIPANTFPISMIPWNSFSGFNLNVGNGGNFLLPIITAGKYYSKGTATYLPVSLQVHHAVCDGYHAASFMNQLQELANTTNEWL
modifications: SITE (1)..(215) CAT_GEO, Type A
B2: CATec3 F97W Y20F: CATec3 with Y20F mutation in combination with F97W (protein, UniProt P00484 1-213, looked up, variant Y20F F97W)
Chloramphenicol …: MNYTKFDVKNWVRREHFEFFRHRLPCGFSLTSKIDITTLKKSLDDSAYKFYPVMIYLIAQAVNQFDELRMAIKDDELIVWDSVDPQFTVFHQETETWSALSCPYSSDIDQFMVNYLSVMERYKSDTKLFPQGVTPENHLNISALPWVNFDSFNLNVANFTDYFAPIITMAKYQQEGDRLLLPLSVQVHHAVCDGFHVARFINRLQELCNSKLK
B3: CATec3: wild type CAT, type A, Escherichia coli; expressed in strain HSCT2107 (protein, listed as Escherichia coli)
chain: MNYTKFDVKNWVRREHFEFYRHRLPCGFSLTSKIDITTLKKSLDDSAYKFYPVMIYLIAQAVNQFDELRMAIKDDELIVWDSVDPQFTVFHQETETFSALSCPYSSDIDQFMVNYLSVMERYKSDTKLFPQGVTPENHLNISALPWVNFDSFNLNVANFTDYFAPIITMAKYQQEGDRLLLPLSVQVHHAVCDGFHVARFINRLQELCNSKLK
modifications: SITE (1)..(213) CAT3_ECOLX, Type A
notes: wild type CAT, type A, Escherichia coli; expressed in strain HSCT2107
B4: CATec3 F97W: comparative CATec3 with F97W mutation (protein, UniProt P00484 1-213, looked up, variant F97W)
Chloramphenicol …: MNYTKFDVKNWVRREHFEFYRHRLPCGFSLTSKIDITTLKKSLDDSAYKFYPVMIYLIAQAVNQFDELRMAIKDDELIVWDSVDPQFTVFHQETETWSALSCPYSSDIDQFMVNYLSVMERYKSDTKLFPQGVTPENHLNISALPWVNFDSFNLNVANFTDYFAPIITMAKYQQEGDRLLLPLSVQVHHAVCDGFHVARFINRLQELCNSKLK

Tested on: not listed separately
Experiment: Melting temperature (Tm) of purified His-tagged CATs
Assay type: physicochemical
Settings: purified CAT
Procedure: To determine in vitro melting temperatures and catalytic efficiencies, His-tagged CATs were purified and characterized using know methods. In the 5,5′-dithiobis-2-nitrobenzoic acid (DTNB) assay, final enzyme concentrations of 0.05-0.1 μg/mL and 5-10 μg/mL were used for the reactions with chloramphenicol and alcohols, respectively. […] The enzyme reactions were held at 50° C. in a BioTek microplate reader for at least 30 minutes with measurements every one minute. The kinetic parameters were calculated using a non-linear regression method known to one of skill in the art.
In the case of B1, the “melting temperature (Tm)” value is reported as 43.5 °C. For B2, the “melting temperature (Tm)” value was 85.5 °C. With B3 the “melting temperature (Tm)” value was 80.2 °C. For B4, the “melting temperature (Tm)” value was 81.2 °C.

Molecular target: CATec3 Y20F (Escherichia coli, UniProt P00484, Y20F)
Experiment: not given
Assay type: biochemical
Settings: not given
Molecule Butanol has a kcat of 1.9 ± 0.4 s⁻¹.

Same assay, conditions: CATec3 Y20F, 50° C., 2 mM acetyl-CoA; average±standard deviation
Work on `CC(C)CO` [Isobutanol] yielded a kcat of 2.3 ± 0.1 s⁻¹. Work on `CC(C)=CCC/C(C)=C\CO` [Nerol] yielded a Km of 4.1 ± 0.8 mM and a kcat of 2.2 ± 0.04 s⁻¹. `CC(C)=CCCC(C)CCO` (centres unmarked) [Citronellol] gave a Km of 3.2 ± 0.3 mM and a kcat of 7.7 ± 0.2 s⁻¹. Work on `OCc1ccccc1` [Benzyl alcohol] yielded a Km of 12.2 ± 1.6 mM and a kcat of 1.6 ± 0.1 s⁻¹. For `CC(C)=CCC/C(C)=C/CO` [Geraniol], the Km was 4.1 ± 0.4 mM and the kcat was 8.0 ± 0.2 s⁻¹. In the case of `OCc1ccco1` [Furfuryl alcohol], the Km is reported as 37.1 ± 9.8 mM and the kcat is reported as 1.1 ± 0.1 s⁻¹. `OCCc1ccccc1` [Phenylethyl alcohol] showed a Km of 10.6 ± 0.4 mM and a kcat of 6.1 ± 0.1 s⁻¹. In the case of `CC(C)CCO` [Isoamyl alcohol], the Km is reported as 59.9 ± 26.6 mM and the kcat is reported as 2.8 ± 0.3 s⁻¹. Work on `CCCCCCO` [Hexanol] yielded a Km of 29.2 ± 4 mM and a kcat of 6.4 ± 0.4 s⁻¹. Molecule `O=C(N[C@H](CO)[C@H](O)c1ccc([N+](=O)[O-])cc1)C(Cl)Cl` [Chloramphenicol] has a Km of 0.2 ± 0.05 mM and a kcat of 105.5 ± 6.9 s⁻¹. For `CCCCCO` [Pentanol], the Km was 64.7 ± 33.6 mM and the kcat was 3.9 ± 1.0 s⁻¹. Molecule `CCO` [Ethanol] has a kcat of 0.8 ± 1.0 s⁻¹. `COc1cccc(CO)c1` [3-Methoxybenzyl alcohol] showed a Km of 10 ± 1.2 mM and a kcat of 18.8 ± 0.9 s⁻¹. With `CC(C)=CCO` [Prenol] the kcat was 2.7 ± 0.3 s⁻¹. `CC/C=C\CCO` [3-cis-Hexen-1-ol] showed a kcat of 2.3 ± 0.2 s⁻¹.

Same assay, conditions: CATec3 Y20F, 50° C., 2 mM acetyl-CoA; average±standard deviation; read-out: KM
With `CC/C=C\CCO` [3-cis-Hexen-1-ol] the Km was 6.4 ± 2.2 mM.
